The target of the test is LRRK2 G2019S (Homo sapiens, UniProt Q5S007, G2019S). As to the kind of experiment: LRRK2 G2019S Km ATP LanthaScreen assay. To be noted: read-out: LRRK2 pIC50 (converted). The format is biochemical. The protocol:
Unless otherwise noted, all reactions are magnetically stirred. Unless otherwise noted, when diethyl ether is used in the experiments described below, it is Fisher ACS certified material and is stabilized with BHT. Unless otherwise noted, “concentrated” and/or “solvent removed under reduced pressure” means evaporating the solvent from a solution or mixture using a rotary evaporator or vacuum pump. Unless otherwise noted, flash chromatography is carried out on a Teledyne Isco (Lincoln, NE), Analogix (Burlington, WI), or Biotage (Stockholm, SWE) automated chromatography system using a commercially available cartridge as the column. Columns may be purchased from Teledyne Isco, Analogix, Biotage, Varian (Palo Alto, CA), or Supelco (Bellefonte, PA) and are usually filled with silica gel as the stationary phase. Reverse phase prep-HPLC conditions, where used, can be found at the end of each experimental section. Aqueous solutions were concentrated on a Genevac (Ipswich, ENG) or by freeze-drying/lyophilization.
Sequence of LRRK2 G2019S (Q5S007 whole entry G2019S): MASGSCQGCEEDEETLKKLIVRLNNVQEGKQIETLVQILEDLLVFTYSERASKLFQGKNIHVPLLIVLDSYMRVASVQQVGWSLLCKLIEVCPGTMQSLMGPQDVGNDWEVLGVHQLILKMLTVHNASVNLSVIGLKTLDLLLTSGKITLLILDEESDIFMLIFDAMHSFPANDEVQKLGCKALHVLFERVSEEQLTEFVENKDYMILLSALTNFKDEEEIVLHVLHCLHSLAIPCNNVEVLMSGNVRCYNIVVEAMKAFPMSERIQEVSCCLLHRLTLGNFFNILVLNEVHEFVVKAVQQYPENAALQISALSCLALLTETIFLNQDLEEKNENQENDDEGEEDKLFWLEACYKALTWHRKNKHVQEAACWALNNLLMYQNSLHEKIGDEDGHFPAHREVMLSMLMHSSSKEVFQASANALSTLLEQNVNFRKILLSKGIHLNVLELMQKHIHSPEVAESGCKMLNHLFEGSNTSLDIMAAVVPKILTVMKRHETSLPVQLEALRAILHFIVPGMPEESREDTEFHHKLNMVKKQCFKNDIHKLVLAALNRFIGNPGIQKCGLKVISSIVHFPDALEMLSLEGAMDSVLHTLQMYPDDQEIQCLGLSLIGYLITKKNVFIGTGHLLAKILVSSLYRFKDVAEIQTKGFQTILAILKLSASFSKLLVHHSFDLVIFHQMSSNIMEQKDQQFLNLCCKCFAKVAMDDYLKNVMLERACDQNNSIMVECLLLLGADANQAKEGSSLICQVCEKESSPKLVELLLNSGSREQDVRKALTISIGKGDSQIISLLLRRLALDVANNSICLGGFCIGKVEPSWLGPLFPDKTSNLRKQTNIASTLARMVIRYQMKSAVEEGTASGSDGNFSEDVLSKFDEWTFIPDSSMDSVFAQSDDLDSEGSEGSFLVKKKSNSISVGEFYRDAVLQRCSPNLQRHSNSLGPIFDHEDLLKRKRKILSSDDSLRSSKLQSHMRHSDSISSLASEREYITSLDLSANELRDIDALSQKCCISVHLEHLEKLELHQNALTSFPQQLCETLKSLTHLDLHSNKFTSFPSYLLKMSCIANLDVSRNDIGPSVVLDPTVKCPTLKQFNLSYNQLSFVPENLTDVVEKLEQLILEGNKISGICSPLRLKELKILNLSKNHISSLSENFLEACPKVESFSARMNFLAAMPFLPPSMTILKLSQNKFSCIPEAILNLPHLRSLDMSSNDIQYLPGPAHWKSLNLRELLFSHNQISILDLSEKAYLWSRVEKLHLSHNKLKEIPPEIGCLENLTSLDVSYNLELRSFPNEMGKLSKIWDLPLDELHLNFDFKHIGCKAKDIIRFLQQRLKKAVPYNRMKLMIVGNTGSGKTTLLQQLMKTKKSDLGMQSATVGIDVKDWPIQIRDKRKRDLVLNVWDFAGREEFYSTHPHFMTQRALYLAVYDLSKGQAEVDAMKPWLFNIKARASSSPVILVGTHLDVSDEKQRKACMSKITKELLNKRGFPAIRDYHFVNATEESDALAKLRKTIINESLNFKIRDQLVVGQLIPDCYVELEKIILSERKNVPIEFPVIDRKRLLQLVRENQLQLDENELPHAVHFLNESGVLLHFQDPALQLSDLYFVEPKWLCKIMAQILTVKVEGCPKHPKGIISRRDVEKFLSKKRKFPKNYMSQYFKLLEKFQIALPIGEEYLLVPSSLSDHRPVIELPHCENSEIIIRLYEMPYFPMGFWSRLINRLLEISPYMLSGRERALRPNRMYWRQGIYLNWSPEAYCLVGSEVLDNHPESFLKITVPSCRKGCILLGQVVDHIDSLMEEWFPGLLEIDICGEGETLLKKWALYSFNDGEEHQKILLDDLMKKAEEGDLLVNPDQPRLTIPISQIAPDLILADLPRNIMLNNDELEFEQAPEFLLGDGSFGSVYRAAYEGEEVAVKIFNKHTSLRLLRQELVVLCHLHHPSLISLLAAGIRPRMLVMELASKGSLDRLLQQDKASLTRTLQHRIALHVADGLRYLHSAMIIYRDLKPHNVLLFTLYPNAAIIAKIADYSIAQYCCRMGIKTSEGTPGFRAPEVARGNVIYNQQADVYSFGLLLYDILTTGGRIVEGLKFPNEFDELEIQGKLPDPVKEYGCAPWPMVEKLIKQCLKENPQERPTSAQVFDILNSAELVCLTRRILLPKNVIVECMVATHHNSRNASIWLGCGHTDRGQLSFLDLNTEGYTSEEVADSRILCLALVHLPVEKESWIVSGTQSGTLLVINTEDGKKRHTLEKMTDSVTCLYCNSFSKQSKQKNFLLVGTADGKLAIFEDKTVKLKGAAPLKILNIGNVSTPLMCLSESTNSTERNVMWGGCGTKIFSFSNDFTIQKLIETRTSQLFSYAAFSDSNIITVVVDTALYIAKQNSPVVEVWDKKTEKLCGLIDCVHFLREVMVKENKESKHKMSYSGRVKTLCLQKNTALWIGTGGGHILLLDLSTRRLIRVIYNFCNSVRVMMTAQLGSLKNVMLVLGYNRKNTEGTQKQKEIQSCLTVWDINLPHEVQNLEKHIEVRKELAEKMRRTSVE
With `CC1(N2CCC(c3cc4cc(NC(=O)C5CC56CC6)ncc4cc3Cl)CC2)COCC1O` (single isomer, unassigned) [Ex-4.5, N-(7-chloro-6-(1-(4-hydroxy-3-methyltetrahydrofuran-3-yl)piperidin-4-yl)isoquinolin-3-yl)spiro[2.2]pentane-1-carboxamide], the IC50 was 0.0813 nM.

Turning to `CC1(N2CCC(c3cc4cc(NC(=O)C5CC56CC6)ncc4cc3Cl)CC2)COCC1O` (single isomer, unassigned) [Ex-4.6, N-(7-chloro-6-(1-(4-hydroxy-3-methyltetrahydrofuran-3-yl)piperidin-4-yl)isoquinolin-3-yl)spiro[2.2]pentane-1-carboxamide], the IC50 is 0.148 nM.

Regarding `CC1(N2CCC(c3cc4cc(NC(=O)C5CC56CCC6)ncc4cc3Cl)CC2)COCC1O` (single isomer, unassigned) [Ex-4.7, N-(7-chloro-6-(1-(4-hydroxy-3-methyltetrahydrofuran-3-yl)piperidin-4-yl)isoquinolin-3-yl)spiro[2.3]hexane-1-carboxamide], the IC50 was 0.0813 nM.

In the case of `CC(C)(O)C1CC1C(=O)Nc1cc2cc(C3CCN(C4(C)COCC4O)CC3)c(Cl)cc2cn1` (single isomer, unassigned) [Ex-4.9, Trans-N-(7-chloro-6-(1-(4-hydroxy-3-methyltetrahydrofuran-3-yl)piperidin-4-yl)isoquinolin-3-yl)-2-(2-hydroxypropan-2-yl)cyclopropane-1-carboxamide], the IC50 is 0.151 nM.

As for `CC(C)(O)C1CC1C(=O)Nc1cc2cc(C3CCN(C4(C)COCC4O)CC3)c(Cl)cc2cn1` (single isomer, unassigned) [Ex-4.10, Trans-N-(7-chloro-6-(1-(4-hydroxy-3-methyltetrahydrofuran-3-yl)piperidin-4-yl)isoquinolin-3-yl)-2-(2-hydroxypropan-2-yl)cyclopropane-1-carboxamide], the IC50 was 0.0813 nM.

Regarding `CC1(N2CCC(c3cc4cc(NC(=O)C5C6CCCOC65)ncc4cc3Cl)CC2)COCC1O` (single isomer, unassigned) [Ex-4.11, N-(7-chloro-6-(1-(4-hydroxy-3-methyltetrahydrofuran-3-yl)piperidin-4-yl)isoquinolin-3-yl)-2-oxabicyclo[4.1.0]heptane-7-carboxamide], the IC50 was 0.363 nM.

As to `CC1(N2CCC(c3cc4cc(NC(=O)C5C6CCCOC65)ncc4cc3Cl)CC2)COCC1O` (single isomer, unassigned) [Ex-4.12, N-(7-chloro-6-(1-(4-hydroxy-3-methyltetrahydrofuran-3-yl)piperidin-4-yl)isoquinolin-3-yl)-2-oxabicyclo[4.1.0]heptane-7-carboxamide], the IC50 was 0.398 nM.

For `CC1(N2CCC(c3cc4cc(NC(=O)C5C6CCCOC65)ncc4cc3Cl)CC2)COCC1O` (single isomer, unassigned) [Ex-4.13, N-(7-chloro-6-(1-(4-hydroxy-3-methyltetrahydrofuran-3-yl)piperidin-4-yl)isoquinolin-3-yl)-2-oxabicyclo[4.1.0]heptane-7-carboxamide], the IC50 was 0.182 nM.

Regarding `CC1(N2CCC(c3cc4cc(NC(=O)C5C6CCCOC65)ncc4cc3Cl)CC2)COCC1O` (single isomer, unassigned) [Ex-4.14, N-(7-chloro-6-(1-(4-hydroxy-3-methyltetrahydrofuran-3-yl)piperidin-4-yl)isoquinolin-3-yl)-2-oxabicyclo[4.1.0]heptane-7-carboxamide], the IC50 is 0.0813 nM.

For the compound `Cc1noc(C2CC2C(=O)Nc2cc3cc(C4CCN(C5(C)COCC5O)CC4)c(Cl)cc3cn2)n1` (single isomer, unassigned) [Ex-4.15, N-(7-chloro-6-(1-(4-hydroxy-3-methyltetrahydrofuran-3-yl)piperidin-4-yl)isoquinolin-3-yl)-2-(3-methyl-1,2,4-oxadiazol-5-yl)cyclopropane-1-carboxamide], the IC50 is 0.0813 nM.

Consider `CC1(N2CCC(c3cc4cc(NC(=O)C5COC6(CCC6)C5)ncc4cc3Cl)CC2)COCC1O` (single isomer, unassigned) [Ex-4.17, N-(7-chloro-6-(1-(4-hydroxy-3-methyltetrahydrofuran-3-yl)piperidin-4-yl)isoquinolin-3-yl)-5-oxaspiro[3.4]octane-7-carboxamide], for which the IC50 was 0.102 nM.

Turning to `CC1(N2CCC(c3cc4cc(NC(=O)C5COC6(CCC6)C5)ncc4cc3Cl)CC2)COCC1O` (single isomer, unassigned) [Ex-4.18, N-(7-chloro-6-(1-(4-hydroxy-3-methyltetrahydrofuran-3-yl)piperidin-4-yl)isoquinolin-3-yl)-5-oxaspiro[3.4]octane-7-carboxamide], the IC50 is 0.166 nM.

Turning to `CC1(N2CCC(c3cc4cc(NC(=O)C5CC5c5ccncc5)ncc4cc3Cl)CC2)COCC1O` (single isomer, unassigned) [Ex-4.21, N-(7-chloro-6-(1-(4-hydroxy-3-methyltetrahydrofuran-3-yl)piperidin-4-yl)isoquinolin-3-yl)-2-(pyridin-4-yl)cyclopropane-1-carboxamide], the IC50 is 0.0813 nM.

As to `CC1(N2CCC(c3cc4cc(NC(=O)C5CC5c5ccncc5)ncc4cc3Cl)CC2)COCC1O` (single isomer, unassigned) [Ex-4.22, N-(7-chloro-6-(1-(4-hydroxy-3-methyltetrahydrofuran-3-yl)piperidin-4-yl)isoquinolin-3-yl)-2-(pyridin-4-yl)cyclopropane-1-carboxamide], the IC50 is 1.74 nM.

Consider `CC1(N2CCC(c3cc4cc(NC(=O)C5CCC6(CCC6)OC5)ncc4cc3Cl)CC2)COCC1O` (single isomer, unassigned) [Ex-4.23, N-(7-chloro-6-(1-(4-hydroxy-3-methyltetrahydrofuran-3-yl)piperidin-4-yl)isoquinolin-3-yl)-5-oxaspiro[3.5]nonane-7-carboxamide], for which the IC50 is 2.34 nM.

For the compound `CC1(N2CCC(c3cc4cc(NC(=O)C5CCC6(CCC6)OC5)ncc4cc3Cl)CC2)COCC1O` (single isomer, unassigned) [Ex-4.24, N-(7-chloro-6-(1-(4-hydroxy-3-methyltetrahydrofuran-3-yl)piperidin-4-yl)isoquinolin-3-yl)-5-oxaspiro[3.5]nonane-7-carboxamide], the IC50 is 0.692 nM.

For `CC1(C)CCC(C(=O)Nc2cc3cc(C4CCN(C5(C)COCC5O)CC4)c(Cl)cc3cn2)CO1` (single isomer, unassigned) [Ex-4.25, N-(7-chloro-6-(1-(4-hydroxy-3-methyltetrahydrofuran-3-yl)piperidin-4-yl)isoquinolin-3-yl)-6,6-dimethyltetrahydrofuran-2H-pyran-3-carboxamide], the IC50 is 0.776 nM.

On to `CC1(C)CCC(C(=O)Nc2cc3cc(C4CCN(C5(C)COCC5O)CC4)c(Cl)cc3cn2)CO1` (single isomer, unassigned) [Ex-4.26, N-(7-chloro-6-(1-(4-hydroxy-3-methyltetrahydrofuran-3-yl)piperidin-4-yl)isoquinolin-3-yl)-6,6-dimethyltetrahydrofuran-2H-pyran-3-carboxamide], for which the IC50 is 0.427 nM.

On to `CN(C)C1CCC2C(C(=O)Nc3cc4cc(C5CCN(C6(C)COCC6O)CC5)c(Cl)cc4cn3)C21` (single isomer, unassigned) [Ex-4.27, N-(7-chloro-6-(1-(4-hydroxy-3-methyltetrahydrofuran-3-yl)piperidin-4-yl)isoquinolin-3-yl)-2-(dimethylamino)bicyclo[3.1.0]hexane-6-carboxamide], for which the IC50 is 2.57 nM.

`CN(C)C1CCC2C(C(=O)Nc3cc4cc(C5CCN(C6(C)COCC6O)CC5)c(Cl)cc4cn3)C21` (single isomer, unassigned) [Ex-4.28, N-(7-chloro-6-(1-(4-hydroxy-3-methyltetrahydrofuran-3-yl)piperidin-4-yl)isoquinolin-3-yl)-2-(dimethylamino)bicyclo[3.1.0]hexane-6-carboxamide]: the IC50 was 0.0813 nM.

For `CCOC1CC2(C1)CC2C(=O)Nc1cc2cc(C3CCN(C4(C)COCC4O)CC3)c(Cl)cc2cn1` (single isomer, unassigned) [Ex-4.29, N-(7-chloro-6-(1-(4-hydroxy-3-methyltetrahydrofuran-3-yl)piperidin-4-yl)isoquinolin-3-yl)-5-ethoxyspiro[2.3]hexane-1-carboxamide], the IC50 is 7.94 nM.

Take `CCOC1CC2(C1)CC2C(=O)Nc1cc2cc(C3CCN(C4(C)COCC4O)CC3)c(Cl)cc2cn1` (single isomer, unassigned) [Ex-4.30, N-(7-chloro-6-(1-(4-hydroxy-3-methyltetrahydrofuran-3-yl)piperidin-4-yl)isoquinolin-3-yl)-5-ethoxyspiro[2.3]hexane-1-carboxamide]: the IC50 was 3.02 nM.

`CCOC1CC2(C1)CC2C(=O)Nc1cc2cc(C3CCN(C4(C)COCC4O)CC3)c(Cl)cc2cn1` (single isomer, unassigned) [Ex-4.31, N-(7-chloro-6-(1-(4-hydroxy-3-methyltetrahydrofuran-3-yl)piperidin-4-yl)isoquinolin-3-yl)-5-ethoxyspiro[2.3]hexane-1-carboxamide]: the IC50 is 5.62 nM.

As for `CCOC1CC2(C1)CC2C(=O)Nc1cc2cc(C3CCN(C4(C)COCC4O)CC3)c(Cl)cc2cn1` (single isomer, unassigned) [Ex-4.32, N-(7-chloro-6-(1-(4-hydroxy-3-methyltetrahydrofuran-3-yl)piperidin-4-yl)isoquinolin-3-yl)-5-ethoxyspiro[2.3]hexane-1-carboxamide], the IC50 was 2.57 nM.

Take `CC1(N2CCC(c3cc4cc(NC(=O)C5C6CCOCC65)ncc4cc3Cl)CC2)COCC1O` (single isomer, unassigned) [Ex-4.33, N-(7-chloro-6-(1-(4-hydroxy-3-methyltetrahydrofuran-3-yl)piperidin-4-yl)isoquinolin-3-yl)-3-oxabicyclo[4.1.0]heptane-7-carboxamide]: the IC50 is 1.17 nM.

The record behind these values is US20240398784A1, “C-LINKED ISOQUINOLINE AMIDES AS LRRK2 INHIBITORS, PHARMACEUTICAL COMPOSITIONS, AND USES THEREOF” (Merck Sharp & Dohme LLC, priority 2021, published 2024).
